In PubChem BioAssay AID192 (DTP/NCI, 2004):
Several values for one entry are separate records, joined by “and”; a condition that tells them apart may be missing. Equal entries are not always repeated. Inconclusive results and toxic doses are left out. Rule for the calls: active = survival T/C of 150% or more; inactive = T/C below 125% in these data. Peptide text beside a SMILES is read from it.

System: BDF1 mice, B16 melanoma ip, median survival T/C
Assay: NCI In Vivo Anticancer Drug Screen. Data for tumor model B16 Melanoma (intraperitoneal) in B6D2F1 (BDF1) mice
Conditions: endpoint: median survival time, higher = longer survival
Outline: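 Transplantable tumor model; survival or tumor size measured; reported as T/C, treated over vehicle control.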

[1] = dose: 100.0 mg/kg/injection, schedule: Q01DX009 (ip), vehicle: saline with Tween-80
[2] = dose: 200.0 mg/kg/injection, schedule: Q01DX009 (ip), vehicle: saline with Tween-80
[3] = dose: 400.0 mg/kg/injection, schedule: Q01DX009 (ip), vehicle: saline with Tween-80
[4] = dose: 25.0 mg/kg/injection, schedule: Q01DX009 (ip), vehicle: Klucel (hydroxypropylcellulose) (HPC)
[5] = dose: 50.0 mg/kg/injection, schedule: Q01DX009 (ip), vehicle: Klucel (hydroxypropylcellulose) (HPC)
[6] = dose: 100.0 mg/kg/injection, schedule: Q01DX009 (ip), vehicle: Klucel (hydroxypropylcellulose) (HPC)
[7] = dose: 50.0 mg/kg/injection, schedule: Q01DX009 (ip), vehicle: saline with Tween-80
[8] = dose: 200.0 mg/kg/injection, schedule: Q01DX009 (ip), vehicle: Klucel (hydroxypropylcellulose) (HPC)
[9] = dose: 400.0 mg/kg/injection, schedule: Q01DX009 (ip), vehicle: Klucel (hydroxypropylcellulose) (HPC)
[10] = dose: 12.5 mg/kg/injection, schedule: Q01DX009 (ip), vehicle: water
[11] = dose: 25.0 mg/kg/injection, schedule: Q01DX009 (ip), vehicle: water
[12] = dose: 25.0 mg/kg/injection, schedule: Q01DX009 (ip), vehicle: saline
[13] = dose: 50.0 mg/kg/injection, schedule: Q01DX009 (ip), vehicle: saline

Measured: T/C

Cc1c[nH]c(=O)[nH]c1=O
inactive: dose: 32.0 mg/kg/injection, schedule: Q01DX009 (ip), vehicle: Klucel (hydroxypropylcellulose) (HPC) 97 % of control and 102 % of control | dose: 32.0 mg/kg/injection, schedule: Q01DX009 (ip), vehicle: saline with Tween-80 91 % of control | dose: 64.0 mg/kg/injection, schedule: Q01DX009 (ip), vehicle: Klucel (hydroxypropylcellulose) (HPC) 97 % of control | dose: 64.0 mg/kg/injection, schedule: Q01DX009 (ip), vehicle: saline with Tween-80 100 % of control | dose: 128.0 mg/kg/injection, schedule: Q01DX009 (ip), vehicle: Klucel (hydroxypropylcellulose) (HPC) 97 % of control and 103 % of control | dose: 256.0 mg/kg/injection, schedule: Q01DX009 (ip), vehicle: Klucel (hydroxypropylcellulose) (HPC) 100 % of control and 103 % of control | dose: 512.0 mg/kg/injection, schedule: Q01DX009 (ip), vehicle: Klucel (hydroxypropylcellulose) (HPC) 98 % of control and 103 % of control | dose: 512.0 mg/kg/injection, schedule: Q01DX009 (ip), vehicle: saline with Tween-80 107 % of control

Nc1nc(N)c2c(Cl)c(CNc3ccc(Cl)c(Cl)c3)ccc2n1
inactive: dose: 0.5 mg/kg/injection, schedule: Q01DX009 (ip), vehicle: saline with Tween-80 98 % of control | dose: 1.0 mg/kg/injection, schedule: Q01DX009 (ip), vehicle: saline with Tween-80 96 % of control | dose: 2.0 mg/kg/injection, schedule: Q01DX009 (ip), vehicle: saline with Tween-80 113 % of control | dose: 4.0 mg/kg/injection, schedule: Q01DX009 (ip), vehicle: saline with Tween-80 107 % of control

COc1ccccc1NC(=O)Nc1cc(C)cc(C)n1
inactive: [1] 94 % of control | [2] 94 % of control | [3] 89 % of control

O=C(O)c1ccc2sc3ccccc3c(=O)c2c1
inactive: dose: 75.0 mg/kg/injection, schedule: Q01DX009 (ip), vehicle: Klucel (hydroxypropylcellulose) (HPC) 100 % of control | dose: 150.0 mg/kg/injection, schedule: Q01DX009 (ip), vehicle: Klucel (hydroxypropylcellulose) (HPC) 96 % of control | dose: 300.0 mg/kg/injection, schedule: Q01DX009 (ip), vehicle: Klucel (hydroxypropylcellulose) (HPC) 96 % of control

Cc1cccc(Cl)c1NC(=O)Cn1cccc1
inactive: [4] 108 % of control | [5] 108 % of control | [6] 118 % of control

CCCCNc1ccc(C(=O)O)cc1
inactive: dose: 100.0 mg/kg/injection, schedule: Q04DX003 (ip), vehicle: gum acacia 97 % of control | dose: 200.0 mg/kg/injection, schedule: Q04DX003 (ip), vehicle: gum acacia 97 % of control | dose: 400.0 mg/kg/injection, schedule: Q04DX003 (ip), vehicle: gum acacia 86 % of control

Cc1cc([N+](=O)[O-])c(Cl)cc1NS(=O)(=O)c1ccccc1
inactive: dose: 25.0 mg/kg/injection, schedule: Q01DX009 (ip), vehicle: saline with Tween-80 95 % of control | [7] 93 % of control | [1] 90 % of control

O=c1cccccc1O.O=c1cccccc1O.[Cu]
inactive: dose: 0.39 mg/kg/injection, schedule: Q01DX009 (ip), vehicle: Klucel (hydroxypropylcellulose) (HPC) 102 % of control | dose: 0.78 mg/kg/injection, schedule: Q01DX009 (ip), vehicle: Klucel (hydroxypropylcellulose) (HPC) 92 % of control

C[CH2][Pb]([CH2]C)([CH2]C)[N]1C(=O)c2ccccc2C1=O
inactive: dose: 1.56 mg/kg/injection, schedule: Q01DX009 (ip), vehicle: Klucel (hydroxypropylcellulose) (HPC) 112 % of control | dose: 3.12 mg/kg/injection, schedule: Q01DX009 (ip), vehicle: Klucel (hydroxypropylcellulose) (HPC) 109 % of control

CN1CCN(C2=C(Cl)C(=O)c3ccccc3C2=O)CC1
inactive: dose: 1.25 mg/kg/injection, schedule: Q01DX009 (ip), vehicle: saline 95 % of control | dose: 2.5 mg/kg/injection, schedule: Q01DX009 (ip), vehicle: saline 88 % of control

O=C(O)C1CCCCC1C(=O)Nc1ccccc1C(F)(F)F (stereo unspecified)
inactive: [1] 90 % of control | [2] 90 % of control | [3] 90 % of control

CCCCCCCCCCCCCCCCCC(=O)NN
inactive: dose: 12.5 mg/kg/injection, schedule: Q01DX009 (ip), vehicle: Klucel (hydroxypropylcellulose) (HPC) 103 % of control | [4] 98 % of control | [5] 105 % of control | dose: 100.0 mg/kg/injection, schedule: Q01DX009 (ip), vehicle: carboxymethylcellulose (CMC) 94 % of control

CN(C)C(=S)S
inactive: [4] 118 % of control | dose: 25.0 mg/kg/injection, schedule: Q04DX003 (ip), vehicle: Klucel (hydroxypropylcellulose) (HPC) 100 % of control | [5] 103 % of control | [7] 89 % of control | dose: 50.0 mg/kg/injection, schedule: Q04DX003 (ip), vehicle: Klucel (hydroxypropylcellulose) (HPC) 105 % of control | [6] 91 % of control | [1] 105 % of control | dose: 100.0 mg/kg/injection, schedule: Q04DX003 (ip), vehicle: Klucel (hydroxypropylcellulose) (HPC) 94 % of control | [8] 116 % of control | [2] 98 % of control | dose: 200.0 mg/kg/injection, schedule: Q04DX003 (ip), vehicle: Klucel (hydroxypropylcellulose) (HPC) 94 % of control | [9] 98 % of control | [3] 89 % of control | dose: 400.0 mg/kg/injection, schedule: Q04DX003 (ip), vehicle: Klucel (hydroxypropylcellulose) (HPC) 97 % of control

O=C(O)CC(NCc1ccccc1)C(=O)O (stereo unspecified)
inactive: [1] 97 % of control | [2] 102 % of control | [3] 100 % of control

CCOC(=O)C1C(=O)CC(=O)C(C(=O)OCC)C1c1ccc(O)cc1 (stereo unspecified)
inactive: [6] 100 % of control | [8] 93 % of control | [9] 103 % of control

COc1ccc(-c2csc(=[N+]3CCCCC3)s2)cc1
inactive: dose: 1.56 mg/kg/injection, schedule: Q01DX009 (ip), vehicle: water 94 % of control and 95 % of control | dose: 3.12 mg/kg/injection, schedule: Q01DX009 (ip), vehicle: water 90 % of control and 101 % of control | dose: 6.25 mg/kg/injection, schedule: Q01DX009 (ip), vehicle: water 101 % of control and 102 % of control | [10] 103 % of control and 109 % of control | [11] 86 % of control and 110 % of control

COc1ccccc1N1C(N)=NC(N)=NC1(C)C
inactive: [12] 102 % of control | [13] 108 % of control

CCOC(=O)C(=CN1CCCC1)C(=O)OCC
inactive: [1] 102 % of control | dose: 100.0 mg/kg/injection, schedule: Q04DX003 (ip), vehicle: saline with Tween-80 120 % of control | [2] 105 % of control | dose: 200.0 mg/kg/injection, schedule: Q04DX003 (ip), vehicle: saline with Tween-80 117 % of control | [3] 91 % of control | dose: 400.0 mg/kg/injection, schedule: Q04DX003 (ip), vehicle: saline with Tween-80 111 % of control

CSCCC(NC(C)=O)C(=O)NNC(C)C (stereo unspecified)
inactive: [12] 105 % of control | [13] 88 % of control | dose: 100.0 mg/kg/injection, schedule: Q01DX009 (ip), vehicle: saline 123 % of control | dose: 200.0 mg/kg/injection, schedule: Q01DX009 (ip), vehicle: saline 88 % of control | dose: 400.0 mg/kg/injection, schedule: Q01DX009 (ip), vehicle: saline 97 % of control

O=C(O)c1nnc(C(=O)O)nn1
inactive: [10] 101 % of control | [11] 96 % of control | dose: 50.0 mg/kg/injection, schedule: Q01DX009 (ip), vehicle: water 106 % of control | dose: 100.0 mg/kg/injection, schedule: Q01DX009 (ip), vehicle: water 100 % of control

CC(C)C(NC(=O)C(N)CCC(=O)O)C(=O)O (stereo not drawn) (H-Glu-Val-OH; configuration not given here)
inactive: [7] 109 % of control | [1] 104 % of control | [2] 108 % of control | [3] 98 % of control
